# Assay results reported in publication PMC9367601 (Cancers, 2022).
# Target: T1, Epidermal Growth Factor Receptor (EGFR), extracellular domain (EGFR-ECD) (Homo sapiens, UniProt P00533)
# T1 construct: full-length EGFR in DiscoverX PathHunter enzyme-complementation cells, EGF-stimulated
# Test: cell-based
# Parameters: DiscoverX PathHunter EGFR dimerization/activation assay, chemiluminescence
# Description: The inhibition of the EGFR dimerization assay was conducted using the PathHunter kit following the producer instructions and with cetuximab as a positive control. For IC50 determination, the selected compounds were tested at different concentration (range 0.1–100 µM) and the IC50 values were calculated by the four parameters logistic (4-PL) model. Evaluation was based on means from at least four independent experiments. The discovery of orally available small molecules able to impair the EGFR activation targeting the extracellular domain could be of great interest for cancer treatment. To pursue this goal, a suitable high/medium throughput screening method is required. In this respect, a commercially available kit (PathHunter® from DiscoverX©; San Francisco, CA, USA) for the screening of compounds able to prevent EGFR activation (either dimerization or autophosphorylation) has been developed in recent years. This assay measures the chemiluminescent signal produced as a consequence of ligand-induced dimerization/activation of EGFR [16]. Our interest in kinase inhibitors and the readily availability of such kit prompted us to start a campaign for the discovery of small molecules targeting the extracellular domain of EGFR.
# T1 sequence (P00533 25-1210): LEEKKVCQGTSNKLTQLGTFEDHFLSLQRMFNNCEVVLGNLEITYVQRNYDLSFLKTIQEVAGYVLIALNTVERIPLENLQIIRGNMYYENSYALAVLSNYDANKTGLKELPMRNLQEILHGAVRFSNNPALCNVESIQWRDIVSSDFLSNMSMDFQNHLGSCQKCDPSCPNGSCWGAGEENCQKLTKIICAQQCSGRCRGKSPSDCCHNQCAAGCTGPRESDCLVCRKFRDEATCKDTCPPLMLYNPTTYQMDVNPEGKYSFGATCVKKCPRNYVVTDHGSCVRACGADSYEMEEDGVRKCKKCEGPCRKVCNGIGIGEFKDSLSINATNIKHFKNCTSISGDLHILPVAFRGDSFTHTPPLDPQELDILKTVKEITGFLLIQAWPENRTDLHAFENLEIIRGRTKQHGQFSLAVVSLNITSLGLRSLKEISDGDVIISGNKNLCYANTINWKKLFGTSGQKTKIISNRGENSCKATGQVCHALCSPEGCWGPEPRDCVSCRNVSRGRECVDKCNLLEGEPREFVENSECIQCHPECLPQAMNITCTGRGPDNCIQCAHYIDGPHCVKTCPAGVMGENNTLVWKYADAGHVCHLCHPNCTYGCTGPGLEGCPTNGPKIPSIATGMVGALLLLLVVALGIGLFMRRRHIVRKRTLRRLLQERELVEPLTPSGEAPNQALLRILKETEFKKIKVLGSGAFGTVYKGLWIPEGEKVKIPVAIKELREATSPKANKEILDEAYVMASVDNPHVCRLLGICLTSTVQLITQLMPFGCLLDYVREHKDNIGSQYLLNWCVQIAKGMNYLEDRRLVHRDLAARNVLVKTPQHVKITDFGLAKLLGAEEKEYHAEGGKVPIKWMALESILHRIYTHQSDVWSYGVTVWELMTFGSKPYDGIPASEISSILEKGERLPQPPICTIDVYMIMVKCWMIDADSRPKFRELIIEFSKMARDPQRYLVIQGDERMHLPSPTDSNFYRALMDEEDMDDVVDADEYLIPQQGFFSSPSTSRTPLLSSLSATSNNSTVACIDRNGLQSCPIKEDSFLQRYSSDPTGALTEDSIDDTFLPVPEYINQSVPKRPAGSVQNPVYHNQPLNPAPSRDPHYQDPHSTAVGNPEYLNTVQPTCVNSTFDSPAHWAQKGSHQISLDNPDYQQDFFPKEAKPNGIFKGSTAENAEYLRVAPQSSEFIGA
inhibition at 10 µM,inhibition at 50 µM,Structure (SMILES)
0%,0%,Nc1ccc2cc3cc(N)ccc3cc2c1 [DSF001]
0%,0%,CC(=O)c1cccc2cc3c(C(C)=O)cccc3cc12 [DSF002]
35 ± 5%,50 ± 1%,ClCc1c2ccccc2c(CCl)c2ccccc12 [DSF003]
0%,1 ± 1%,N#CCc1c2ccccc2c(CC#N)c2ccccc12 [DSF004]
0%,1 ± 4%,O=C(O)c1cccc2cc3c(C(=O)O)cccc3cc12 [DSF005]
19 ± 1%,27 ± 4%,c1ccc2c(CN3CCOCC3)c3ccccc3c(CN3CCOCC3)c2c1 [DSF006]
16 ± 4%,16 ± 4%,c1ccc2c(CN3CCCCC3)c3ccccc3c(CN3CCCCC3)c2c1 [DSF007]
0%,14 ± 2%,CC(=O)Nc1ccc(O)c2c1C(=O)c1ccccc1C2=O [DSF008]
8 ± 1%,48 ± 1%,CS(=O)(=O)Nc1ccc(NC(=O)c2ccc3c(c2)C(=O)c2c(NCCOCCN)ccc(NCCOCCN)c2C3=O)cc1 [DSF009]
28 ± 3%,34 ± 2%,CS(=O)(=O)Nc1ccc(NC(=O)c2ccc3c(c2)C(=O)c2c(NCCN4CCNCC4)ccc(NCCN4CCNCC4)c2C3=O)cc1 [DSF010]
9 ± 5%,39 ± 1%,O=C(O)COCC(=O)OCc1cc(O)c2c(c1)C(=O)c1cccc(O)c1C2=O [DSF011]
0%,20 ± 5%,CC(NC(=O)C(NC(=O)OCc1ccccc1)C(C)C)C(=O)OCCCCCNc1ccc(NCCCCCOC(=O)C(C)NC(=O)C(NC(=O)OCc2ccccc2)C(C)C)c2c1C(=O)c1ccccc1C2=O (centres unmarked) [DSF012]
0%,0%,CC(NC(=O)C(NC(=O)OCc1ccccc1)C(C)C)C(=O)OCCCCCNc1ccc(NCCCCCO)c2c1C(=O)c1ccccc1C2=O (centres unmarked) [DSF013]
0%,0%,C=CCOc1cccc2c1C(=O)c1cccc(OCC=C)c1C2=O [DSF014]
39 ± 4%,48 ± 1%,CN(C)CCNc1ccc(F)c2c1C(=O)c1ccccc1C2=O [DSF015]
33 ± 5%,25 ± 3%,O=C1c2ccccc2C(=O)c2c(NCCNCCO)ccc(F)c21 [DSF016]
9 ± 2%,14 ± 1%,O=C(CN1CCCCC1)Nc1ccc(NC(=O)CN2CCCCC2)c2c1C(=O)c1ccccc1C2=O [DSF017]
16 ± 3%,38 ± 5%,O=C(CN1CCOCC1)Nc1ccc(NC(=O)CN2CCOCC2)c2c1C(=O)c1ccccc1C2=O [DSF018]
35 ± 5%,33 ± 1%,O=C(CN1CCCCC1)Nc1ccc(NC(=O)CN2CCCCC2)c2c1C(=O)c1c(O)ccc(O)c1C2=O [DSF019]
33 ± 5%,29 ± 1%,O=C(CN1CCOCC1)Nc1ccc(NC(=O)CN2CCOCC2)c2c1C(=O)c1c(O)ccc(O)c1C2=O [DSF020]
16 ± 4%,30 ± 5%,O=C(CCN1CCOCC1)Nc1ccc(NC(=O)CCN2CCOCC2)c2c1C(=O)c1ccccc1C2=O [DSF021]
0%,4 ± 4%,Nc1cccc(-c2cc(-c3ccccc3)ncn2)c1 [DSF022]

inhibition at 10 µM,inhibition at 50 µM,Structure (SMILES)
22 ± 1%,8 ± 2%,Nc1cccc(-c2cc(-c3ccc(C(=O)O)cc3)ncn2)c1 [DSF023]
16 ± 1%,5 ± 3%,O=C(O)c1ccc(-c2cc(-c3cccc(C(F)(F)F)c3)nc(O)n2)cc1 [DSF024]
6 ± 5%,34 ± 1%,O=C(O)c1ccc(-c2cc(-c3cccc(C(F)(F)F)c3)ncn2)cc1 [DSF025]
0%,0%,FC(F)(F)c1cccc(-c2cc(-c3ccccc3)ncn2)c1 [DSF026]
0%,0%,c1ccc(-c2cccc(-c3cc(-c4ccccc4)ncn3)c2)cc1 [DSF027]
0%,0%,Brc1cccc(-c2cc(-c3ccccc3)ncn2)c1 [DSF028]
1 ± 4%,0%,O=C(O)c1ccc(-c2ccc(-c3ccccc3)cc2O)cc1 [DSF029]
0%,0%,O=C(NCc1ccccc1)c1ccc(-c2ccc(-c3ccccc3)cc2O)cc1 [DSF030]
0%,19 ± 1%,COc1cccc(Nc2ccc3cc(-c4cccs4)c(=O)oc3n2)c1 [DSF031]
0%,3 ± 5%,CSc1cccc(Nc2ccc3cc(-c4cccs4)c(=O)oc3n2)c1 [DSF032]
0%,12 ± 3%,COc1cccc(Nc2nc(N(C)C)c3cc(-c4c(Cl)cccc4Cl)c(=O)oc3n2)c1 [DSF033]
14 ± 2%,0%,COc1cccc(Nc2nc(O)c3cc(-c4c(Cl)cccc4Cl)c(=O)oc3n2)c1 [DSF034]
0%,0%,COc1cccc(Nc2nc(O)c3cc(-c4cc(OC)cc(OC)c4)c(=O)oc3n2)c1 [DSF035]
0%,0%,COc1cccc(Nc2nc(O)c3cc(-c4ccccc4)c(=O)oc3n2)c1 [DSF036]
12 ± 4%,40 ± 5%,O=c1oc2ncnc(Nc3cccc(-c4ccccc4)c3)c2cc1-c1c(Cl)cccc1Cl [DSF037]
0%,24 ± 5%,Cc1cccc(Nc2ncnc3oc(=O)c(-c4c(Cl)cccc4Cl)cc23)c1 [DSF038]
0%,10 ± 2%,CN1CCN(c2ncnc3oc(=O)c(-c4c(Cl)cccc4Cl)cc23)CC1 [DSF039]
0%,0%,CCOC(=O)c1cc2cnc(O)nc2oc1=O [DSF040]
0%,0%,O=c1oc2nc(Nc3cccc(-c4ccccc4)c3)nc(O)c2cc1-c1cccc(Br)c1 [DSF041]
0%,0%,COC(=O)Cc1c(C)c2ccc(O)cc2oc1=O [DSF042]
0%,0%,COc1ccc2c(C)c(CC(=O)Nc3ccc(C(=O)O)cc3)c(=O)oc2c1 [DSF043]
0%,0%,COc1ccc2c(C)c(CCC(=O)Nc3ccc(C(=O)O)cc3)c(=O)oc2c1C [DSF044]

inhibition at 10 µM,inhibition at 50 µM,Structure (SMILES)
0%,0%,COc1ccc2c(C)c(CCC(=O)Nc3ccc(C(=O)O)cc3)c(=O)oc2c1 [DSF045]
0%,0%,COCCOc1ccc2c(C)c(CC(=O)Nc3ccc(C(=O)O)cc3)c(=O)oc2c1 [DSF046]
0%,0%,COc1ccc2c(C)c(CC(=O)Nc3cccc(C(=O)O)c3)c(=O)oc2c1C [DSF047]
9 ± 3%,3 ± 4%,COCCOc1ccc2c(C)c(CCC(=O)Nc3ccc(C(=O)O)cc3)c(=O)oc2c1 [DSF048]
35 ± 2%,36 ± 3%,Cc1c(CCC(=O)Nc2cccc(C(=O)O)c2)c(=O)oc2nc3oc4c(c3cc12)CCCC4 [DSF049]
24 ± 4%,32 ± 2%,Cc1c(CC(=O)Nc2cccc(O)c2)c(=O)oc2c(C)c3oc4c(c3cc12)CCCC4 [DSF050]
40 ± 1%,50 ± 1%,Cc1c(CC(=O)Nc2ccc(NS(C)(=O)=O)cc2)c(=O)oc2c(C)c3oc4c(c3cc12)CCCC4 [DSF051]
41 ± 4%,49 ± 2%,CC(=O)Nc1ccc(NC(=O)Cc2c(C)c3cc4c5c(oc4c(C)c3oc2=O)CCCC5)cc1 [DSF052]
39 ± 5%,43 ± 1%,Cc1c(CC(=O)Nc2ccc(C(N)=O)cc2)c(=O)oc2c(C)c3oc4c(c3cc12)CCCC4 [DSF053]
8 ± 4%,46 ± 4%,Cc1c(C)c2cc3c4c(oc3c(O)c2oc1=O)CCCC4 [DSF054]
46 ± 1%,46 ± 5%,Cc1oc2c(C)c3oc(=O)c(CC(=O)NCc4ccccc4Cl)c(C)c3cc2c1C [DSF055]
0%,22 ± 5%,Cc1ccc(NC(=O)Nc2ccc(Nc3cc(-c4ccccc4)ncn3)cc2)cc1 [DSF056]
17 ± 2%,44 ± 5%,O=C(Nc1ccc(Nc2cc(-c3ccccc3)ncn2)cc1)Nc1ccc(C(=O)O)cc1 [DSF057]
12 ± 2%,5 ± 5%,COc1cccc(Nc2ncc(C(=O)O)c(O)n2)c1 [DSF058]
0%,0%,Cc1ccc([N+](=O)[O-])cc1Nc1nccc(-c2cccnc2)n1 [DSF059]
0%,0%,Cc1nc(Cl)cc(Nc2ncc(C(=O)O)s2)n1 [DSF060]
20 ± 4%,1 ± 1%,O=C(NC(=O)c1ccccc1)Nc1cccc(Oc2ncc(Cl)cn2)c1 [DSF061]
9 ± 3%,21 ± 2%,O=C(NC(=S)Nc1cccc(Oc2ncc(Cl)cn2)c1)c1ccccc1 [DSF062]
0%,5 ± 5%,O=C(NC(=O)c1ccccc1[N+](=O)[O-])Nc1cccc(Oc2ncc(Cl)cn2)c1 [DSF063]
0%,0%,CCc1cnc(Oc2cccc(NC(=O)NC(=O)c3ccccc3)c2)nc1 [DSF064]
